ChEMBL document CHEMBL5550210, “Discovery of Novel α,β-Unsaturated Amide Derivatives as Candidate Antifungals to Overcome Fungal Resistance” (J Med Chem, 2024)
In brackets after ≈: the same amount, converted by molar mass. Activity calls are given as the source filed them. The rule behind the calls is not given here.

Tests used:
Candida albicans [1] = assay: Antifungal activity against Candida albicans CPCC400616 assessed as inhibition of fungal growth by CLSI protocol based microdilution method; assay type: functional
Nakaseomyces glabratus = assay: Antifungal activity against Candida glabrata assessed as inhibition of fungal growth by CLSI protocol based microdilution method; assay type: functional
Candida tropicalis = assay: Antifungal activity against Candida tropicalis CGMCC 2.3739 assessed as inhibition of fungal growth by CLSI protocol based microdilution method; assay type: functional
Cryptococcus neoformans = assay: Antifungal activity against Cryptococcus neoformans CGMCC2.3161 assessed as inhibition of fungal growth by CLSI protocol based microdilution method; assay type: functional
Candida albicans [2] = assay: Antifungal activity against fluconazole-resistant Candida albicans CaR assessed as inhibition of fungal growth by CLSI based microdilution method; assay type: functional
Candida albicans [3] = assay: Antifungal activity against fluconazole-resistant Candida albicans 904 assessed as inhibition of fungal growth by CLSI based microdilution method; assay type: functional
Candida albicans [4] = assay: Antifungal activity against fluconazole-resistant Candida albicans 901 assessed as inhibition of fungal growth by CLSI based microdilution method; assay type: functional
Candida albicans [5] = assay: Antifungal activity against Candida albicans assessed as inhibition of fungal growth by CLSI protocol based microdilution method; assay type: functional
[6] = Acute toxicity in rat assessed as Low-observed adverse effect level at po administration; assay type: organism-based; settings: in vivo
[7] = Acute toxicity in Kunming mouse assessed as animal death at 1000 mg/kg,po administrated for 7 days; assay type: organism-based; settings: in vivo, 168 h, time 7 day
[8] = Acute toxicity in Kunming mouse assessed as behavioral change at 1000 mg/kg,po administrated for 7 days; assay type: organism-based; settings: in vivo, 168 h, time 7 day
[9] = Subacute toxicity in Kunming mouse assessed as animal death at 100 mg/kg,po administrated once daily for 14 days; assay type: organism-based; settings: in vivo, 336 h, time 14 day
[10] = Subacute toxicity in Kunming mouse assessed as behavioral change at 100 mg/kg,po administrated once daily for 14 days; assay type: organism-based; settings: in vivo, 336 h, time 14 day
[11] = Half life in Sprague-Dawley rat at 2 mg/kg,iv by LC-MS/MS analysis; assay type: ADME, organism-based; settings: in vivo
[12] = Half life in Sprague-Dawley rat at 5 mg/kg,po by LC-MS/MS analysis; assay type: ADME, organism-based; settings: in vivo
[13] = Tmax in Sprague-Dawley rat at 5 mg/kg,po by LC-MS/MS analysis; assay type: ADME, organism-based; settings: in vivo
[14] = AUC (0 to infinity) in Sprague-Dawley rat at 2 mg/kg,iv by LC-MS/MS analysis; assay type: ADME, organism-based; settings: in vivo
[15] = AUC (0 to infinity) in Sprague-Dawley rat at 5 mg/kg,po by LC-MS/MS analysis; assay type: ADME, organism-based; settings: in vivo
[16] = Clearance in Sprague-Dawley rat at 2 mg/kg,iv by LC-MS/MS analysis; assay type: ADME, organism-based; settings: in vivo
[17] = MRTinfinity in Sprague-Dawley rat at 2 mg/kg,iv by LC-MS/MS analysis; assay type: ADME, organism-based; settings: in vivo
[18] = MRTinfinity in Sprague-Dawley rat at 5 mg/kg,po by LC-MS/MS analysis; assay type: ADME, organism-based; settings: in vivo
[19] = Volume of distribution at steady state in Sprague-Dawley rat at 2 mg/kg,iv by LC-MS/MS analysis; assay type: ADME, organism-based; settings: in vivo, read-out: Vdss
[20] = Oral bioavailability in Sprague-Dawley rat at 5 mg/kg by LC-MS/MS analysis; assay type: ADME, organism-based; settings: in vivo
[21] = biological target: Lanosterol 14-alpha demethylase (Candida albicans (strain SC5314 / ATCC MYA-2876) (Yeast), UniProt P10613); assay: Inhibition of CYP51 in Candida albicans SC5314 assessed as increase in lanosterol level at 0.031 ug/ml incubated for 24 hrs by GC-MS analysis relative to control; settings: at 0.031 µg/mL
Candida albicans [22] = assay: Antifungal activity against Candida albicans SC5314 assessed as fungal cell membrane injury at 16 ug/ml incubated for 24 hrs by transmission electron microscopic analysis; assay type: functional, organism-based; settings: dose 16.0 µg/ml
Candida albicans [23] = assay: Antifungal activity against Candida albicans SC5314 assessed as leakage of endogenous substances at 16 ug/ml incubated for 24 hrs by transmission electron microscopic analysis; assay type: functional, organism-based; settings: dose 16.0 µg/ml
Candida albicans [24] = assay: Antifungal activity against Candida albicans CPCC400616 assessed as inhibition of fungal biofilm formation incubated for 24 hrs by XTT assay; assay type: functional, organism-based
Candida albicans [25] = assay: Antifungal activity against Candida albicans CPCC400616 assessed as downregulation of TEC1 gene expression at 2 ug/ml incubated for 12 hrs by RT-PCR analysis; assay type: functional, organism-based; settings: dose 2.0 µg/ml
Candida albicans [26] = assay: Antifungal activity against Candida albicans CPCC400616 assessed as downregulation of EFG1 gene expression at 2 ug/ml incubated for 12 hrs by RT-PCR analysis; assay type: functional, organism-based; settings: dose 2.0 µg/ml
Candida albicans [27] = assay: Antifungal activity against Candida albicans CPCC400616 assessed as downregulation of CPH1 gene expression at 2 ug/ml incubated for 12 hrs by RT-PCR analysis; assay type: functional, organism-based; settings: dose 2.0 µg/ml
Candida albicans [28] = assay: Antifungal activity against Candida albicans CPCC400616 assessed as downregulation of ALS3 gene expression at 2 ug/ml incubated for 12 hrs by RT-PCR analysis; assay type: functional, organism-based; settings: dose 2.0 µg/ml
Candida albicans [29] = assay: Fungicidal activity against fluconazole-resistant Candida albicans 904 assessed as reduction in colony forming units at 32 times MIC incubated for 24 hrs by time-kill curve assay; assay type: functional
Candida albicans [30] = assay: Antifungal activity against fluconazole-resistant Candida albicans 904 assessed as increase in intracellular fluorescence intensity at 32 ug/ml incubated for 4 hrs by fluorescence inverted microscopic analysis; assay type: functional, organism-based; settings: dose 32.0 µg/ml
Candida albicans [31] = assay: Antifungal activity against Candida albicans SC5314 infected ICR mouse model assessed as reduction in fungal burden in kidney at ip administration for 5 days; assay type: functional, organism-based; settings: time 5.0 day
Candida albicans [32] = assay: Antifungal activity against fluconazole-resistant Candida albicans 904 infected ICR mouse model assessed as reduction in fungal burden in kidney at 10 to 20 mg/kg,ip administration for 5 days; assay type: functional, organism-based; settings: dose 10-20 mg/kg, time 5.0 day
Candida albicans [33] = assay: Antifungal activity against fluconazole-resistant Candida albicans 904 infected ICR mouse model assessed as median survival time at 10 mg/kg,ip administration for 14 days; assay type: functional; settings: time 14 day
Candida albicans [34] = assay: Antifungal activity against fluconazole-resistant Candida albicans 904 infected ICR mouse model assessed as median survival time at 20 mg/kg,ip administration for 14 days; assay type: functional; settings: time 14 day
[35] = Acute toxicity in Kunming mouse assessed as change in body weight at 1000 mg/kg,po administrated for 7 days; assay type: organism-based; settings: in vivo, 168 h, time 7 day
[36] = Acute toxicity in Kunming mouse assessed as increase in body weight at 100 mg/kg,po administrated once daily for 14 days; assay type: organism-based; settings: in vivo, 336 h, time 14 day
[37] = Acute toxicity in Kunming male mouse assessed as kidney damage at 100 mg/kg,po administrated for 7 days by hematoxylin and eosin staining based microscopic analysis; assay type: organism-based; settings: in vivo, 168 h, time 7 day
[38] = Acute toxicity in Kunming female mouse assessed as kidney damage at 100 mg/kg,po administrated for 7 days by hematoxylin and eosin staining based microscopic analysis; assay type: organism-based; settings: in vivo, 168 h, time 7 day
[39] = Acute toxicity in Kunming male mouse assessed as liver damage at 100 mg/kg,po administrated for 7 days by hematoxylin and eosin staining based microscopic analysis; assay type: organism-based; settings: in vivo, 168 h, time 7 day
[40] = Acute toxicity in Kunming female mouse assessed as liver damage at 100 mg/kg,po administrated for 7 days by hematoxylin and eosin staining based microscopic analysis; assay type: organism-based; settings: in vivo, 168 h, time 7 day

Lanosterol 14-alpha demethylase, sequence (P10613 whole entry): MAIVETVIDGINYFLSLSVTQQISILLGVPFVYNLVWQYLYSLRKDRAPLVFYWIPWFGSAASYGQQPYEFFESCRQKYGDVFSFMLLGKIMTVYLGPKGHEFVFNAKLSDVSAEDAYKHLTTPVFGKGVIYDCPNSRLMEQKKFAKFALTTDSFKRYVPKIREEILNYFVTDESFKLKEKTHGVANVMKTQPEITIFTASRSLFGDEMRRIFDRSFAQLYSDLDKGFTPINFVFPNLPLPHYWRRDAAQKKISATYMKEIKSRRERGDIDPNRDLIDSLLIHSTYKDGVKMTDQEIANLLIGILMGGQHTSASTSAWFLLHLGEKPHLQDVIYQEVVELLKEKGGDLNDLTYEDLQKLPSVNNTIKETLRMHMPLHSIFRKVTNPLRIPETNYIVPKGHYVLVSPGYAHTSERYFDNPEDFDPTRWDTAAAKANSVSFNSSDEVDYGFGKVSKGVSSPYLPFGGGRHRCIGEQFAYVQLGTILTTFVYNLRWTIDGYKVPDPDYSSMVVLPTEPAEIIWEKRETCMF

Which MIC (Candida albicans [1]) does the source give for `CCCCNC(=O)/C=C/c1ccc(COC(Cn2ccnc2)c2ccc(Cl)cc2Cl)cc1` (centres undefined) here?
Its MIC is 0.03 µg/mL (≈ 0.0635 µM).

And the MIC (Nakaseomyces glabratus)?
The MIC was 4 µg/mL (≈ 8.47 µM).

And the MIC (Candida tropicalis)?
Its MIC is 64 µg/mL (≈ 135 µM).

What about the MIC (Cryptococcus neoformans) of the same compound?
The MIC was 0.5 µg/mL (≈ 1.06 µM).

What about the MIC (Candida albicans [2]) of the same compound?
Its MIC is 1 µg/mL (≈ 2.12 µM).

What about the MIC (Candida albicans [3]) of the same compound?
The MIC was 1 µg/mL (≈ 2.12 µM).

And the MIC (Candida albicans [4])?
The MIC was 1 µg/mL (≈ 2.12 µM).

And the MIC (Candida albicans [5])?
The MIC was 2 µg/mL (≈ 4.23 µM).

What about the LOAEL [6] of the same compound?
Its LOAEL is 1.138 mg/kg.

And the Activity [7]?
Its Activity is “Non-Toxic”.

What about the Activity [8] of the same compound?
The Activity was “Non-Toxic”.

And the Activity [9]?
The Activity was “Non-Toxic”.

And the Activity [10]?
The Activity was “Non-Toxic”.

What about the half-life [11] of the same compound?
Its half-life is 1.72 h.

What about the half-life [12] of the same compound?
Its half-life is 1.23 h.

And the Tmax [13]?
The Tmax was 1 h.

And the AUC(0-inf) [14]?
Its AUC(0-inf) is 1410 ng·h/mL.

What about the AUC(0-inf) [15] of the same compound?
The AUC(0-inf) was 452 ng·h/mL.

And the clearance [16]?
Its clearance is 23.7 mL/min/kg.

What about the MRT inf [17] of the same compound?
Its MRT inf is 1.24 h.

What about the MRT inf [18] of the same compound?
The MRT inf was 1.93 h.

And the Vd [19]?
Its Vd is 1.76 L/kg.

And the bioavailability [20]?
Its bioavailability is 12.8%.

What about the “inhibition (INH)” value [21] of the same compound?
Its value is “Active”.

What about the Activity (Candida albicans [22]) of the same compound?
Its Activity is “Active”.

What about the Activity (Candida albicans [23]) of the same compound?
Its Activity is “Active”.

What about the Activity (Candida albicans [24]) of the same compound?
Its Activity is “Dose-Dependent Effect”.

What about the Activity (Candida albicans [25]) of the same compound?
The Activity was “Active”.

What about the Activity (Candida albicans [26]) of the same compound?
The Activity was “Active”.

And the Activity (Candida albicans [27])?
Its Activity is “Active”.

And the Activity (Candida albicans [28])?
Its Activity is “Active”.

What about the Activity (Candida albicans [29]) of the same compound?
Its Activity is 2 log10CFU/ml.

What about the Activity (Candida albicans [30]) of the same compound?
The Activity was “Active”.

And the Activity (Candida albicans [31])?
The Activity was “Dose-Dependent Effect”.

And the Activity (Candida albicans [32])?
The Activity was “Active”.

What about the MST (Candida albicans [33]) of the same compound?
The MST was 10 days.

And the MST (Candida albicans [34])?
The MST was 13.52 days.

And the Activity [35]?
The Activity was “Non-Toxic”.

What about the Activity [36] of the same compound?
Its Activity is “Toxic”.

And the Activity [37]?
Its Activity is “Toxic”.

What about the Activity [38] of the same compound?
Its Activity is “Non-Toxic”.

And the Activity [39]?
Its Activity is “Toxic”.

What about the Activity [40] of the same compound?
The Activity was “Toxic”.

With `O=C(/C=C/c1ccc(COC(Cn2ccnc2)c2ccc(Cl)cc2Cl)cc1)Nc1ccc(Cl)cc1Cl` (centres undefined) as the compound, how does the MIC (Candida albicans [1]) read?
The MIC was 0.06 µg/mL (≈ 0.107 µM).

What about the MIC (Nakaseomyces glabratus) of the same compound?
The MIC was 1 µg/mL (≈ 1.78 µM).

And the MIC (Candida tropicalis)?
Its MIC is 2 µg/mL (≈ 3.56 µM).

And the MIC (Cryptococcus neoformans)?
The MIC was 0.5 µg/mL (≈ 0.891 µM).

What about the MIC (Candida albicans [2]) of the same compound?
Its MIC is 1 µg/mL (≈ 1.78 µM).

What about the MIC (Candida albicans [3]) of the same compound?
The MIC was 1 µg/mL (≈ 1.78 µM).

What about the MIC (Candida albicans [4]) of the same compound?
Its MIC is 1 µg/mL (≈ 1.78 µM).

What about the MIC (Candida albicans [5]) of the same compound?
Its MIC is 1 µg/mL (≈ 1.78 µM).

And the LOAEL [6]?
Its LOAEL is 0.452 mg/kg.

What about the “inhibition (INH)” value [21] of the same compound?
The value was “Active”.

What about the Activity (Candida albicans [24]) of the same compound?
The Activity was “Dose-Dependent Effect”.

What about the Activity (Candida albicans [25]) of the same compound?
The Activity was “Active”.

What about the Activity (Candida albicans [26]) of the same compound?
Its Activity is “Active”.

And the Activity (Candida albicans [27])?
The Activity was “Active”.

What about the Activity (Candida albicans [28]) of the same compound?
Its Activity is “Active”.

And the Activity (Candida albicans [30])?
The Activity was “Active”.
